Results: the NIST ThermoML archive (doi:10.1021/je900137r)

Assay: molar heat capacity at constant volume
Conditions: Liquid, Vacuum adiabatic calorimetry

CCC [propane]
Conditions | molar heat capacity at constant volume [J/K/mol]
270.37 K, 19134 kPa | 70.51
271.33 K, 19881 kPa | 70.43
272.95 K, 21136 kPa | 70.81
273.9 K, 21877 kPa | 70.9
275.54 K, 23127 kPa | 70.92
276.18 K, 3327 kPa | 70.24
276.48 K, 23865 kPa | 71.62
276.56 K, 3559 kPa | 70.86
278.12 K, 25101 kPa | 71.49
278.85 K, 5025 kPa | 70.73
279.04 K, 25835 kPa | 72.09
279.23 K, 5297 kPa | 71.29
280.7 K, 27065 kPa | 72.08
281.51 K, 6761 kPa | 71.44
281.61 K, 27786 kPa | 72.29
281.9 K, 7032 kPa | 70.95
283.29 K, 29020 kPa | 72.18
284.18 K, 8508 kPa | 71.57
284.19 K, 29713 kPa | 72.65
284.58 K, 8760 kPa | 71.75
285.87 K, 30962 kPa | 72.47
286.77 K, 31632 kPa | 72.64
286.85 K, 10247 kPa | 71.76
287.26 K, 10490 kPa | 72.25
288.45 K, 32894 kPa | 72.96
289.34 K, 33552 kPa | 73.33
289.52 K, 11964 kPa | 71.92
289.95 K, 12212 kPa | 72.29
292.2 K, 13671 kPa | 72.85
292.64 K, 13928 kPa | 73.17
294.88 K, 15364 kPa | 73.57
295.34 K, 15644 kPa | 73.82
297.56 K, 17055 kPa | 74.47
298.05 K, 17358 kPa | 74.2
300.26 K, 18750 kPa | 74.37
300.73 K, 2939 kPa | 74.37
300.76 K, 19068 kPa | 74.45
301.58 K, 3377 kPa | 74.41
301.67 K, 3419 kPa | 74.62
302.95 K, 20442 kPa | 74.16
303.48 K, 20773 kPa | 74.78
303.54 K, 4354 kPa | 74.77
304.37 K, 4801 kPa | 74.97
304.51 K, 4850 kPa | 74.76
305.65 K, 22131 kPa | 75.52
306.2 K, 22473 kPa | 75.56
306.36 K, 5801 kPa | 74.54
307.19 K, 6235 kPa | 74.97
307.35 K, 6310 kPa | 75.3
308.37 K, 23829 kPa | 76.01
308.94 K, 24172 kPa | 76.12
309.19 K, 7252 kPa | 75.53
310.01 K, 7669 kPa | 75.56
310.22 K, 7778 kPa | 75.78
311.08 K, 25517 kPa | 76.58
311.68 K, 25869 kPa | 76.11
312.04 K, 8706 kPa | 75.83
312.85 K, 9104 kPa | 76.02
313.1 K, 9241 kPa | 76.23
313.82 K, 27203 kPa | 77.38
314.43 K, 27556 kPa | 77.06
314.91 K, 10151 kPa | 75.71
315.69 K, 10543 kPa | 77.05
316 K, 10697 kPa | 76.49
316.58 K, 28887 kPa | 76.95
317.18 K, 29242 kPa | 77.79
317.79 K, 11598 kPa | 77.05
318.56 K, 11984 kPa | 77.31
318.91 K, 12158 kPa | 77.07
319.33 K, 30553 kPa | 77.02
319.67 K, 2142 kPa | 76.76
319.95 K, 30930 kPa | 77.48
320.71 K, 13058 kPa | 77.4
321.3 K, 2771 kPa | 77.58
321.43 K, 13428 kPa | 77.25
321.83 K, 13623 kPa | 76.95
322.1 K, 32227 kPa | 78.59
322.71 K, 3326 kPa | 77.29
322.73 K, 32614 kPa | 78
323.62 K, 14518 kPa | 78.11
324.31 K, 14874 kPa | 77.39
324.35 K, 3977 kPa | 78.06
324.77 K, 15094 kPa | 77.5
324.91 K, 33925 kPa | 78.84
325.78 K, 4543 kPa | 78.25
326.57 K, 15995 kPa | 78.02
327.22 K, 16325 kPa | 78.34
327.42 K, 5191 kPa | 78.96
327.73 K, 16576 kPa | 78.56
328.88 K, 5770 kPa | 78.35
329.52 K, 17472 kPa | 78.67
330.15 K, 17784 kPa | 78.59
330.51 K, 6416 kPa | 78.78
330.7 K, 18059 kPa | 79.38
331.99 K, 6999 kPa | 78.63
332.5 K, 18957 kPa | 79.25
333.09 K, 19244 kPa | 78.85
333.62 K, 7647 kPa | 78.71
333.68 K, 19542 kPa | 80.2
335.12 K, 8240 kPa | 79.2
335.5 K, 20439 kPa | 79.93
336.05 K, 20709 kPa | 79.2
336.7 K, 21027 kPa | 80.28
336.76 K, 8887 kPa | 79.06
338.28 K, 9489 kPa | 80.76
338.52 K, 21926 kPa | 80.26
339.05 K, 22184 kPa | 80.79
339.73 K, 22511 kPa | 80.76
339.92 K, 10135 kPa | 80.44
341.46 K, 10747 kPa | 81.71
341.56 K, 23408 kPa | 80.54
342.07 K, 23667 kPa | 81.31
342.79 K, 24013 kPa | 81.23
343.1 K, 11393 kPa | 80.84
344.62 K, 24907 kPa | 81.87
344.67 K, 12011 kPa | 81.35
